# According to US20240269058A1, “AGAR HYDROLYSIS PRODUCT HAVING HYALURONIDASE INHIBITORY ACTIVITY AND USES THEREOF” (KOREA INSTITUTE OF OCEAN SCIENCE & TECHNOLOGY, priority 2022, published 2024):
# Biological target: hyaluronidase (HAase)
# Experiment: Hyaluronidase (HAase) inhibitory activity, N-acetylglucosamine from hyaluronic acid, DMAB absorbance at 540 nm
# Assay type: biochemical
# Procedure: The hyaluronidase (HAase) inhibitory activity was identified by measuring N-acetylglucosamine produced by degradation of hyaluronic acid by hyaluronidase. 12.5 μL of HAase (8 mg/mL) dissolved in 0.1 M acetate buffer (pH 3.5) was mixed with 12.5 μL of agar partial hydrolysis product (PHP) at a concentration of 9 mg/mL and reacted at 37° C. for 20 minutes. To activate the HAase, the mixture was added with 25 μL of 12.5 mM CaCl2) and reacted at 37 °C for 20 minutes, and added with 62.5 μL of hyaluronic acid (2.4 mg/ml) dissolved in 0.1 M acetate buffer (pH 3.5) and reacted at 37° ° C. for 40 minutes again. To stop the substrate-enzyme reaction, the reaction solution was added with 25 μl of 0.4 N NaOH and 25 μl of 0.4 N potassium tetraborate, reacted at 100° C. for 3 minutes, and then cooled. The reaction solution was added with 750 μl of a DMAB solution and cultured at 37 °C for 20 minutes, and the absorbance was measured at 540 nm. The inhibitory activity was calculated using the following equation.
smiles,measurement,setting,value
"O=C([O-])c1cc(=O)c2c(OCC(O)COc3cccc4oc(C(=O)[O-])cc(=O)c34)cccc2o1.[Na+].[Na+] [DSCG, Disodium cromoglycate]",IC50,hyaluronidase inhibition,28 ± 10 µg/mL
same,Inhibition (%),sample solution 1 mg/mL,65.32 ± 0.20%
